Assay results from patent US6706663B2, “Herbicidal 3-heterocyclic substituted benzisothiazole and benzisoxazole compounds” (Wyeth, priority 2000, dated 2004).

Key:
[1] = system: CYPSE (Cyperus serotinus); assay: Flooded paddy, preemergence weed control; type: in vivo, Rottb.; details: rated 3-4 weeks after treatment, 0-9 rating scale
Summary of the method: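 Herbicidal effect was scored visually on a 0–9 scale against an untreated control 3–4 weeks after treatment. Compounds were applied preemergence as 50/50 v/v aqueous/acetone mixtures into flood water (1.5–3 cm deep over silt loam), at roughly 0.0080 to 0.1250 kg/ha active ingredient.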

[2] = system: ABUTH (Abutilon theophrasti); assay: Postemergence herbicidal evaluation; type: in vivo, Medic.; details: for ABUTH herbicidal rating: postemergence
Summary of the method: (§1)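 Visual 0–9 injury scores versus control plants, covering stand, vigour, malformation, size, chlorosis and general appearance, taken four to five weeks post-spray and averaged over replicate tests. Plants were sprayed at roughly two weeks old and held on greenhouse benches.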

CYPIR (Cyperus iria) = assay: Flooded paddy, preemergence weed control; type: in vivo; details: rated 3-4 weeks after treatment, 0-9 rating scale
Summary of the method: (§2)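 Seeds or propagules were planted in the top 0.5 cm of silt loam soil and kept flooded 1.5–3 cm above the surface throughout, then held in the greenhouse. Injury was rated visually on a 0–9 scale against untreated controls, covering stand, vigor, malformation, size and chlorosis.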

[3] = system: MOOVA (Monochoria vaginalis); assay: Flooded paddy, preemergence weed control; type: in vivo, Presl.; details: rated 3-4 weeks after treatment, 0-9 rating scale
Summary of the method: as §2

[4] = system: CHEAL (Chenopodium album); assay: Postemergence herbicidal evaluation; type: in vivo, L.; details: for CHEAL herbicidal rating: postemergence
Summary of the method: as §1

[5] = system: AMBEL (Ambrosia artemisifolia); assay: Postemergence herbicidal evaluation; type: in vivo, L.; details: for AMBEL herbicidal rating: postemergence
Summary of the method: as §1

[6] = system: CASOB (Cassia obtusifolia); assay: Postemergence herbicidal evaluation; type: in vivo, L.; details: for CASOB herbicidal rating: postemergence
Summary of the method: as §1

[7] = system: IPOHE (Ipomoea hederacea); assay: Postemergence herbicidal evaluation; type: in vivo, (L.) Jacq.; details: for IPOHE herbicidal rating: postemergence
Summary of the method: as §1

SETVI (Setaria viridis) [8] = assay: Postemergence herbicidal evaluation; type: in vivo, (L.) Beau; details: for SETVI herbicidal rating: postemergence
Summary of the method: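 Seedlings about two weeks old were sprayed with compound in 50/50 acetone/water plus 0.5% TWEEN 20, at the equivalent of about 0.0040 to 1.000 kg/ha. Plants were kept in a greenhouse and visually rated 0-9 against a control four to five weeks after treatment. Repeat tests were averaged.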

GALAP (Galium aparine) [9] = assay: Preemergence herbicidal evaluation; type: in vivo; details: preemergence, rated 4-5 weeks after treatment
Summary of the method: (§3)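 Steps: mix seeds with potting soil; plant on ~1 inch soil per cup; spray compound in aqueous acetone; hold on greenhouse benches with routine watering; rate 0–9 visually against control at 4–5 weeks.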

SETVI (Setaria viridis) [10] = assay: Preemergence herbicidal evaluation; type: in vivo, (L.) Beau; details: rated 4-5 weeks after treatment
Summary of the method: as §3

[11] = system: ECHCG (Echinochloa crus-galli); assay: Preemergence herbicidal evaluation; type: in vivo, (L.) Beau; details: rated 4-5 weeks after treatment
Summary of the method: as §3

[12] = system: CHEAL (Chenopodium album); assay: Preemergence herbicidal evaluation; type: in vivo, L.; details: rated 4-5 weeks after treatment
Summary of the method: as §3

[13] = system: AMBEL (Ambrosia artemisifolia); assay: Preemergence herbicidal evaluation; type: in vivo, L.; details: rated 4-5 weeks after treatment
Summary of the method: as §3

[14] = system: CASOB (Cassia obtusifolia); assay: Preemergence herbicidal evaluation; type: in vivo, L.; details: rated 4-5 weeks after treatment
Summary of the method: as §3

[15] = system: TRZAWR (Wheat, Winter, cv Riband); assay: Postemergence herbicidal evaluation; type: in vivo, Triticum aestivum; details: for TRZAWR herbicidal rating: postemergence
Summary of the method: as §1

GALAP (Galium aparine) [16] = assay: Postemergence herbicidal evaluation; type: in vivo; details: for GALAP herbicidal rating: postemergence
Summary of the method: as §1

ORYSAT (Rice, Tebonnet) [17] = assay: Preemergence herbicidal evaluation; type: in vivo, Oryza sativa, (L.) Tebonnet; details: rated 4-5 weeks after treatment
ORYSAT (Rice, Tebonnet) [18] = assay: Postemergence herbicidal evaluation; type: in vivo, Oryza sativa, (L.) Tebonnet; details: for ORYSAT herbicidal rating: postemergence
Summary of the method: as §1

[19] = system: SAGPY (Sagittaria pygmaea); assay: Flooded paddy, preemergence weed control; type: in vivo, L.; details: rated 3-4 weeks after treatment, 0-9 rating scale
Summary of the method: as §2

What does the source list for Cc1ccc(-c2nsc3ccc(N4C(=O)C5=C(CCCC5)C4=O)cc23)s1 [Compound 20, N-[3-(5-methyl-2-thienyl)-1,2-benzisothiazol-5-yl]-1-cyclohexene-1,2-dicarboximide]?
herbicidal rating, CYPSE ([1]; rate 0.0320 kg/ha): 4.0; herbicidal rating, CYPSE ([1]; rate 0.1250 kg/ha): 7.0; Postemergence herbicidal rating, ABUTH ([2]; rate 0.0320 kg/ha): 7.0; Postemergence herbicidal rating, ABUTH ([2]; rate 0.0620 kg/ha): 9.0; Postemergence herbicidal rating, ABUTH ([2]; rate 0.1250 kg/ha): 9.0; herbicidal rating, CYPIR (CYPIR (Cyperus iria); rate 0.0320 kg/ha): 2.0; herbicidal rating, CYPIR (CYPIR (Cyperus iria); rate 0.1250 kg/ha): 3.0; herbicidal rating, MOOVA ([3]; rate 0.0320 kg/ha): 9.0; herbicidal rating, MOOVA ([3]; rate 0.1250 kg/ha): 9.0; Postemergence herbicidal rating, CHEAL ([4]; rate 0.0320 kg/ha): 3.0; Postemergence herbicidal rating, CHEAL ([4]; rate 0.0620 kg/ha): 5.0; Postemergence herbicidal rating, CHEAL ([4]; rate 0.1250 kg/ha): 5.0; Postemergence herbicidal rating, AMBEL ([5]; rate 0.0320 kg/ha): 6.0; Postemergence herbicidal rating, AMBEL ([5]; rate 0.0620 kg/ha): 6.0; Postemergence herbicidal rating, AMBEL ([5]; rate 0.1250 kg/ha): 9.0; Postemergence herbicidal rating, CASOB ([6]; rate 0.0320 kg/ha): 1.0; Postemergence herbicidal rating, CASOB ([6]; rate 0.0620 kg/ha): 1.0; Postemergence herbicidal rating, CASOB ([6]; rate 0.1250 kg/ha): 1.0; Postemergence herbicidal rating, IPOHE ([7]; rate 0.0320 kg/ha): 6.0; Postemergence herbicidal rating, IPOHE ([7]; rate 0.0620 kg/ha): 9.0; Postemergence herbicidal rating, IPOHE ([7]; rate 0.1250 kg/ha): 9.0; Postemergence herbicidal rating, SETVI (SETVI (Setaria viridis) [8]; rate 0.0320 kg/ha): 2.0; Postemergence herbicidal rating, SETVI (SETVI (Setaria viridis) [8]; rate 0.0620 kg/ha): 2.0; Postemergence herbicidal rating, SETVI (SETVI (Setaria viridis) [8]; rate 0.1250 kg/ha): 2.0; GALAP preemergence herbicidal rating (GALAP (Galium aparine) [9]; Rate 0.0620 kg/ha): 0.0; GALAP preemergence herbicidal rating (GALAP (Galium aparine) [9]; Rate 0.1250 kg/ha): 0.0; GALAP preemergence herbicidal rating (GALAP (Galium aparine) [9]; Rate 0.2500 kg/ha): 3.0; SETVI preemergence herbicidal rating (SETVI (Setaria viridis) [10]; Rate 0.0620 kg/ha): 0.0; SETVI preemergence herbicidal rating (SETVI (Setaria viridis) [10]; Rate 0.1250 kg/ha): 0.0; SETVI preemergence herbicidal rating (SETVI (Setaria viridis) [10]; Rate 0.2500 kg/ha): 0.0; ECHCG preemergence herbicidal rating ([11]; Rate 0.0620 kg/ha): 0.0; ECHCG preemergence herbicidal rating ([11]; Rate 0.1250 kg/ha): 0.0; ECHCG preemergence herbicidal rating ([11]; Rate 0.2500 kg/ha): 0.0; CHEAL preemergence herbicidal rating ([12]; Rate 0.0620 kg/ha): 0.0; CHEAL preemergence herbicidal rating ([12]; Rate 0.1250 kg/ha): 2.0; CHEAL preemergence herbicidal rating ([12]; Rate 0.2500 kg/ha): 3.0; AMBEL preemergence herbicidal rating ([13]; Rate 0.0620 kg/ha): 0.0; AMBEL preemergence herbicidal rating ([13]; Rate 0.1250 kg/ha): 1.0; AMBEL preemergence herbicidal rating ([13]; Rate 0.2500 kg/ha): 2.0; CASOB preemergence herbicidal rating ([14]; Rate 0.0620 kg/ha): 0.0; CASOB preemergence herbicidal rating ([14]; Rate 0.1250 kg/ha): 0.0; CASOB preemergence herbicidal rating ([14]; Rate 0.2500 kg/ha): 2.0; Postemergence herbicidal rating, TRZAWR ([15]; rate 0.0320 kg/ha): 3.5; Postemergence herbicidal rating, TRZAWR ([15]; rate 0.0620 kg/ha): 4.0; Postemergence herbicidal rating, TRZAWR ([15]; rate 0.1250 kg/ha): 4.5; Postemergence herbicidal rating, GALAP (GALAP (Galium aparine) [16]; rate 0.0320 kg/ha): 1.0; Postemergence herbicidal rating, GALAP (GALAP (Galium aparine) [16]; rate 0.0620 kg/ha): 1.0; Postemergence herbicidal rating, GALAP (GALAP (Galium aparine) [16]; rate 0.1250 kg/ha): 1.0; ORYSAT preemergence herbicidal rating (ORYSAT (Rice, Tebonnet) [17]; Rate 0.0620 kg/ha): 0.0; ORYSAT preemergence herbicidal rating (ORYSAT (Rice, Tebonnet) [17]; Rate 0.1250 kg/ha): 0.0; ORYSAT preemergence herbicidal rating (ORYSAT (Rice, Tebonnet) [17]; Rate 0.2500 kg/ha): 0.0; Postemergence herbicidal rating, ORYSAT (ORYSAT (Rice, Tebonnet) [18]; rate 0.0320 kg/ha): 2.5; Postemergence herbicidal rating, ORYSAT (ORYSAT (Rice, Tebonnet) [18]; rate 0.0620 kg/ha): 3.0; Postemergence herbicidal rating, ORYSAT (ORYSAT (Rice, Tebonnet) [18]; rate 0.1250 kg/ha): 4.5

What does the source list for CC1COC(c2nsc3ccc(-n4c(=O)cc(C(F)(F)F)n(C)c4=O)cc23)O1 (stereo not shown) [Compound 57, 1-methyl-3-[3-(4-methyl-1,3-dioxolan-2-yl)-1,2-benzisothiazol-5-yl]-6-(trifluoromethyl)uracil]?
herbicidal rating, CYPSE ([1]; rate 0.0320 kg/ha): 9.0; herbicidal rating, CYPSE ([1]; rate 0.1250 kg/ha): 9.0; ABUTH herbicidal rating ([2]; rate 0.0320 kg/ha): 9.0; ABUTH herbicidal rating ([2]; rate 0.0620 kg/ha): 9.0; herbicidal rating, CYPIR (CYPIR (Cyperus iria); rate 0.0080 kg/ha): 0.0; herbicidal rating, CYPIR (CYPIR (Cyperus iria); rate 0.0320 kg/ha): 7.5; herbicidal rating, CYPIR (CYPIR (Cyperus iria); rate 0.1250 kg/ha): 9.0; herbicidal rating, MOOVA ([3]; rate 0.0320 kg/ha): 9.0; herbicidal rating, MOOVA ([3]; rate 0.1250 kg/ha): 9.0; CHEAL herbicidal rating ([4]; rate 0.0320 kg/ha): 9.0; CHEAL herbicidal rating ([4]; rate 0.0620 kg/ha): 7.0; AMBEL herbicidal rating ([5]; rate 0.0320 kg/ha): 9.0; AMBEL herbicidal rating ([5]; rate 0.0620 kg/ha): 9.0; CASOB herbicidal rating ([6]; rate 0.0320 kg/ha): 7.0; CASOB herbicidal rating ([6]; rate 0.0620 kg/ha): 9.0; IPOHE herbicidal rating ([7]; rate 0.0320 kg/ha): 9.0; IPOHE herbicidal rating ([7]; rate 0.0620 kg/ha): 9.0; SETVI herbicidal rating (SETVI (Setaria viridis) [8]; rate 0.0320 kg/ha): 4.0; SETVI herbicidal rating (SETVI (Setaria viridis) [8]; rate 0.0620 kg/ha): 9.0; herbicidal rating, SAGPY ([19]; rate 0.0080 kg/ha): 0.0; herbicidal rating, SAGPY ([19]; rate 0.0320 kg/ha): 4.5; herbicidal rating, SAGPY ([19]; rate 0.1250 kg/ha): 7.5; Preemergence herbicidal rating SETVI (SETVI (Setaria viridis) [10]; Rate 0.0620 kg/ha): 9.0; Preemergence herbicidal rating SETVI (SETVI (Setaria viridis) [10]; Rate 0.1250 kg/ha): 9.0; Preemergence herbicidal rating SETVI (SETVI (Setaria viridis) [10]; Rate 0.2500 kg/ha): 9.0; Preemergence herbicidal rating ECHCG ([11]; Rate 0.0620 kg/ha): 9.0; Preemergence herbicidal rating ECHCG ([11]; Rate 0.1250 kg/ha): 9.0; Preemergence herbicidal rating ECHCG ([11]; Rate 0.2500 kg/ha): 9.0; Preemergence herbicidal rating CHEAL ([12]; Rate 0.0620 kg/ha): 9.0; Preemergence herbicidal rating CHEAL ([12]; Rate 0.1250 kg/ha): 9.0; Preemergence herbicidal rating CHEAL ([12]; Rate 0.2500 kg/ha): 9.0; Preemergence herbicidal rating AMBEL ([13]; Rate 0.0620 kg/ha): 9.0; Preemergence herbicidal rating AMBEL ([13]; Rate 0.1250 kg/ha): 9.0; Preemergence herbicidal rating AMBEL ([13]; Rate 0.2500 kg/ha): 9.0; Preemergence herbicidal rating CASOB ([14]; Rate 0.0620 kg/ha): 5.5; Preemergence herbicidal rating CASOB ([14]; Rate 0.1250 kg/ha): 7.5; Preemergence herbicidal rating CASOB ([14]; Rate 0.2500 kg/ha): 9.0; TRZAWR herbicidal rating ([15]; rate 0.0320 kg/ha): 4.5; TRZAWR herbicidal rating ([15]; rate 0.0620 kg/ha): 5.0; GALAP herbicidal rating (GALAP (Galium aparine) [16]; rate 0.0320 kg/ha): 6.0; GALAP herbicidal rating (GALAP (Galium aparine) [16]; rate 0.0620 kg/ha): 9.0; Preemergence herbicidal rating ORYSAT (ORYSAT (Rice, Tebonnet) [17]; Rate 0.0620 kg/ha): 8.0; Preemergence herbicidal rating ORYSAT (ORYSAT (Rice, Tebonnet) [17]; Rate 0.1250 kg/ha): 8.0; Preemergence herbicidal rating ORYSAT (ORYSAT (Rice, Tebonnet) [17]; Rate 0.2500 kg/ha): 9.0; ORYSAT herbicidal rating (ORYSAT (Rice, Tebonnet) [18]; rate 0.0320 kg/ha): 4.0; ORYSAT herbicidal rating (ORYSAT (Rice, Tebonnet) [18]; rate 0.0620 kg/ha): 4.5
